{"source": "paper PMC12260939", "about": "“Radiosynthesis and Evaluation of ^11C‑Labeled Imidazolyl Pyrimidine Derivatives for Positron Emission Tomography Imaging of Glycogen Synthase Kinase‑3” (ACS Pharmacology & Translational Science, 2025)", "key": {"[1]": {"experiment": "Pharmacokinetics: half-life and bioavailability", "details": "in vivo"}, "GSK-3 [2]": {"system": "GSK-3", "experiment": "NHP PET imaging of brain uptake", "assay_type": "in vivo, cynomolgus monkeys", "details": "i.v. bolus, baseline", "excerpt": "(§1) Then, we sought to assess the in vivo PET imaging performance characteristics of [^11C]13a–e in NHPs, and the results are presented in Figure . […] One potential contributor is metabolic instability of those tracers may reduce the amount of intact tracers to cross the BBB. Another important consideration is efflux by ATP-binding cassette (ABC) transporters, such as P-glycoprotein (P-gp) that is highly expressed at the BBB and can actively pump substrates out of the CNS. To investigate whether 13a–e are P-gp efflux substrates, a P-gp inhibition study was conducted. […] To enhance brain uptake in future analogs, various medicinal chemistry strategies could be employed, such as hydrogen bond donor/acceptor optimization, fine-tuning lipophilicity, steric shielding of efflux motifs, and bioisosteric replacements. A potential limitation of this study is the lack of blood sampling during the PET scans, which precluded assessment of [^11C]13e plasma concentrations following tariquidar pretreatment. […]\n(§2) PET experiments were conducted on anesthetized healthy cynomolgus monkeys, following approval from the Stockholm Animal Research Ethical Committee (Dnr. 4820/06–600). […] The monkeys’ heads were stabilized with a fixation device, and body temperature was regulated with a Bair Hugger model 505 (Arizant Healthcare, MN, USA) and continuously monitored using an esophageal thermometer. […]"}, "Solubility": {"experiment": "Solubility", "assay_type": "physicochemical", "details": "in dry DMSO at pH = 7.4", "description": "(§3) Multiparameter optimization (MPO) and brain/plasma concentration at steady-state (logBB) are widely used to predict BBB permeability. […] A detailed ADME/PK (absorption, distribution, metabolism, excretion and pharmacokinetics) profiling was conducted, and the results are listed in Table . […] These values meet the standards that BBB permeability is considered high if Papp A–B is ≥ 3.0 × 10^–6 cm/s and the efflux ratio is <3.0."}, "[3]": {"experiment": "Unbound fraction in brain (fu brain)", "assay_type": "in vitro ADME", "description": "as §3"}, "human recombinant GSK3β": {"target": "human recombinant GSK3β (Homo sapiens, UniProt P49841)", "sequence (P49841 whole entry)": "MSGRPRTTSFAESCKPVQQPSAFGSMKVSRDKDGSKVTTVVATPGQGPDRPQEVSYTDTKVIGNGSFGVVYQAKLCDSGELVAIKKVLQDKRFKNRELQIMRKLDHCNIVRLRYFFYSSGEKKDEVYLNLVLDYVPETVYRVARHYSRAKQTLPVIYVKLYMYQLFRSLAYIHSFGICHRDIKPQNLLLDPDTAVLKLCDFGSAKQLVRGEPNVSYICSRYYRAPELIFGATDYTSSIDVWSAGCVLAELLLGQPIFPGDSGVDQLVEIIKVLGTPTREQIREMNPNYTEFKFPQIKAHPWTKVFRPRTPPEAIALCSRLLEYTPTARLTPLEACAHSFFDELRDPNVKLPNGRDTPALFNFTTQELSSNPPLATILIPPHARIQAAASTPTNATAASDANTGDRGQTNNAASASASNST", "experiment": "GSK3β scintillation proximity assay (SPA), inhibition of kinase activity", "assay_type": "biochemical", "description": "The inhibition of GSK3β activity is assessed using a scintillation proximity assay (SPA) in a 96-well microtiter plate format. The assay utilizes purified human recombinant GSK3β enzyme (∼1 nM active), [γ-^33P]-ATP (0.04 μCi), and a biotinylated peptide substrate (Biotin-[…](PO3H2)-PQL) at a final concentration of 2 μM. Reactions are carried out in an assay buffer containing MOPS, EDTA, β-mercaptoethanol, Brij 35, glycerol, and BSA, and preincubated for 10–15 min at room temperature. Inhibitor testing is conducted in duplicate using 10 different concentrations. The kinase reaction is initiated by adding ATP (1 μM final) in the presence of 50 mM Mg(Ac)2. After a 15 min incubation at room temperature, the reaction is terminated by adding a solution (25 μL) containing 5 mM EDTA, 50 μM ATP, 0.1% Triton X-100, and 10 mg/mL streptavidin-coated SPA beads, followed by the addition of distilled water (50 μL). After a 6-h incubation, bound radioactivity is measured using a MicroBeta Trilux liquid scintillation counter (1450 MicroBeta Trilux, Wallac). Data are analyzed using nonlinear regression with variable slope (GraphPad Prism or Excel Fit), and results are reported as Ki values calculated via the Cheng-Prusoff equation."}, "Protein binding (% free)": {"experiment": "Protein binding (% free)", "assay_type": "in vitro ADME", "details": "read-out: mean Prot binding (% free)"}, "[4]": {"experiment": "Apparent permeability (Papp A-B) and efflux ratio", "assay_type": "in vitro ADME", "description": "as §3"}, "GSK-3β": {"system": "GSK-3β", "experiment": "In vitro autoradiography on rat brain tissue sections", "assay_type": "binding", "details": "rat brain sections, baseline", "description": "In the next step, we performed in vitro autoradiography studies on rat brain tissue sections to investigate the binding selectivity and distribution of compounds [^3H]13a–13e (Figure ). […] These findings support the potential of this compound series for further development as GSK-3β-targeted neuroimaging probes.\nIn vitro autoradiography was conducted on 10 μm thick cry-cut tissue sections of rat tissue that had been thaw-mounted onto microscope slides. The brain sections were incubated in 50 mM Tris-HCl buffer at room temperature and then incubated with [^3H]-ligand for 30 min. The sections were rinsed three times for 10 min each in Tris buffer at 1 °C, followed by a quick rinse in deionized water at 1 °C, and then air-dried at room temperature with a fan. The radiolabeled sections and Amersham plastic tritium standards were then exposed to phosphoimager plates (Fuji BAS-TR2040) overnight. Blocking studies were conducted using a 1000-fold excess of the cold reference compounds, and validated GSK-3β inhibitors AR-A014418 and SB-216763. […] This micromolar concentration is consistent with established methods for GSK-3 radioligand autoradiography blocking experiments."}, "P-glycoprotein (P-gp)": {"system": "P-glycoprotein (P-gp)", "experiment": "P-gp inhibition PET study (tariquidar pretreatment) in NHP", "assay_type": "in vivo, cynomolgus monkeys", "excerpt": "as §1, §2"}, "GSK-3 [5]": {"target": "GSK-3", "experiment": "Radioligand saturation binding assay with tritiated ligands in hippocampal membranes", "set-up": "species or system Sprague–Dawley rat", "details": "tritiated ligand, hippocampus of SD rat brains", "description": "The pharmacology and physicochemical properties of compounds 13a–13e are depicted in Table . To evaluate binding affinities, saturation binding assays using tritiated ligands [^3H]13a, [^3H]13c, [^3H]13d, [^3H]13e (Scheme S1) were performed using the hippocampal tissue of Sprague–Dawley (SD) rat brains. As depicted in Table A, total binding (TB), nonspecific binding (NSB), and specific binding (SB) of the respective tritiated ligands were measured with increasing concentrations of the radioligands. The dissociation constant (Kd) and capacity (B max) of each radioligand were calculated to confirm their binding affinity.\nFor membrane preparation, hippocampal tissue from adult rats (Sprague–Dawley) was dissected out, weighed, and frozen in 0.32 M sucrose at −70 °C. On the experiment day, the tissue was thawed, homogenized in 50 mM Tris, 5 mM EDTA (pH 7.4) and then centrifuged at 48 000 xg for 15 min at +4 °C. The pellet was diluted in binding buffer (50 mM Tris, 4 mM MgCl2, 1 mM EDTA pH 7.4) to a final concentration of 2.5 mg w.w./mL. Saturation binding experiments were performed in duplicate, with each tube containing 1 mg w.w. in 0.5 mL binding buffer and 0.1 – 17 nM (11–12 concentrations) of radioligand. Nonspecific binding was measured by adding 10 μM AR-A014418. The assays were incubated for 2–3 h at room temperature and terminated by quick filtration using Whatman GF/B filters pretreated with 0.3% polyethylenimine on a Brandel cell harvester. Radioactivity was measured with a Packard Tri-Carb 2900TR liquid scintillation counter, and data were processed by nonlinear regression analyses using PRISM 4.03."}, "hERG channel": {"target": "hERG channel (Homo sapiens, UniProt Q12809)", "sequence (Q12809 whole entry)": "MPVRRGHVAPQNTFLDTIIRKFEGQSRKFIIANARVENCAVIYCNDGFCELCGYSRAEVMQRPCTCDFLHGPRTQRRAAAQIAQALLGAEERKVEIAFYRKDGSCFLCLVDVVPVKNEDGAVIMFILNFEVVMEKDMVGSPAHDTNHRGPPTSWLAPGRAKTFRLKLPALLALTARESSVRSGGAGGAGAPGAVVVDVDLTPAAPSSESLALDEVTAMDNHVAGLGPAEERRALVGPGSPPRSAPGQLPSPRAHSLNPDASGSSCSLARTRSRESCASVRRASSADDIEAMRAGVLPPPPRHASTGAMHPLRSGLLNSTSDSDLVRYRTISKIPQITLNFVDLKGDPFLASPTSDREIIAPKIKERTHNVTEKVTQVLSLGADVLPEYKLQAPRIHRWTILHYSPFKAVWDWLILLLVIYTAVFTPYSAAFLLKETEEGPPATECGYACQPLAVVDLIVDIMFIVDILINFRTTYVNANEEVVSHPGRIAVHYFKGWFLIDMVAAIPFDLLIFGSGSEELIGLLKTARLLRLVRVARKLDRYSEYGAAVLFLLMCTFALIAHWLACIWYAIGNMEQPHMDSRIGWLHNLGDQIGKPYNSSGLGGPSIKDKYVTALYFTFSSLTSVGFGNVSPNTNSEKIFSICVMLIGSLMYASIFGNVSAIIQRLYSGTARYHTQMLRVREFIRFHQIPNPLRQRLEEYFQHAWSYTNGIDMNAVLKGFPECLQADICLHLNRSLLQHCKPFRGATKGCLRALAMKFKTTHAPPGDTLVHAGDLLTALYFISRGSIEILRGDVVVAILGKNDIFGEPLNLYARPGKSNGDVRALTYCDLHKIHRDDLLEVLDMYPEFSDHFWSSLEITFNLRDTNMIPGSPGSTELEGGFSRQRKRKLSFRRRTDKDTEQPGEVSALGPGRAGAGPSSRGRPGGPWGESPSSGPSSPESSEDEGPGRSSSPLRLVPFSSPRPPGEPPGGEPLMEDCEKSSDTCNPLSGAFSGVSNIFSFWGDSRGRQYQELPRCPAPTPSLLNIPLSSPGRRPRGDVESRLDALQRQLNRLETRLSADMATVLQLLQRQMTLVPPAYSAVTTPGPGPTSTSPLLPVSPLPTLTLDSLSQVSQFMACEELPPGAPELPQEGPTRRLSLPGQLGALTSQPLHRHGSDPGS", "experiment": "hERG channel inhibition"}, "[6]": {"experiment": "Intrinsic clearance (CLint)", "assay_type": "in vitro ADME", "details": "cells (cell type not named); read-out: median CLint"}}}
{"smiles": "CC(=O)N1CCN(Cc2ccc(Nc3ncc(F)c(-c4cnc(C)n4C4CCOCC4)n3)cc2)CC1", "note": "[13e]", "values": [{"measurement": "bioavailability", "setting": "[1]", "value": 10.1, "unit": "%"}, {"measurement": "half-life", "setting": "[1]; read-out: mean t 1/2 (converted)", "value": 1.73, "unit": "h"}, {"measurement": "brain uptake (PET)", "setting": "GSK-3 [2]", "value": "relatively higher signals in the brain"}, {"measurement": "solubility", "setting": "Solubility", "value": 362, "unit": "µM"}, {"measurement": "fraction unbound", "setting": "[3]", "value": 0.12}, {"measurement": "Ki", "setting": "human recombinant GSK3β; GSK-3β, calculated via the Cheng-Prusoff equation", "value": 3.33, "unit": "nM"}, {"measurement": "IC50", "setting": "human recombinant GSK3β; SPA, 1 μM ATP", "value": 4.44, "unit": "nM"}, {"measurement": "fraction unbound", "setting": "Protein binding (% free)", "value": 0.111}, {"measurement": "P app A-B", "setting": "[4]", "value": "12.7 × 10^–6 cm/s"}, {"measurement": "efflux ratio", "setting": "[4]; not told, Papp B–A/Papp A–B", "value": 1.4}, {"measurement": "regional binding in autoradiography", "setting": "GSK-3β; by brain region", "value": "high binding in the cortex and hippocampus, moderate uptake in the striatum and cerebellum, and relatively low binding in the thalamus"}, {"measurement": "radioactive accumulation / distribution in autoradiography", "setting": "GSK-3β; tritiated ligand", "value": "highest and most regionally distinct uptake"}, {"measurement": "P-gp substrate status", "setting": "P-glycoprotein (P-gp); NHP PET", "value": "P-glycoprotein substrate"}, {"measurement": "brain uptake after P-gp inhibition", "setting": "P-glycoprotein (P-gp); NHP, Tariquidar 6 mg/kg", "value": "significantly increased the brain uptake"}, {"measurement": "Kd", "setting": "GSK-3 [5]", "value": 2.94, "unit": "nM"}, {"measurement": "IC50", "setting": "hERG channel", "value": 20500, "unit": "nM"}, {"measurement": "hepatocyte CLint", "setting": "[6]", "value": 12, "unit": "µL/min/1e6 cells"}]}
